This note sets out measurements from patent US12060351B2, “Thiadiazole IRAK4 inhibitors” (Gilead Sciences, Inc., priority 2018, dated 2024).

One assay deals with TNFα. The assay can be described thus: IRAK4 Monocyte TNFα Cell Based Assay (LPS-stimulated, TR-FRET TNFα detection). The arrangement: species or system human. Conditions: Homo sapiens, Monocyte, read-out: EC50 MONO TNF HTRF. In a few lines: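 Monocytes (5,000 cells/well) treated with compound (0.1% DMSO) for 1 hour at 37° C, then stimulated with 50 pg/ml LPS for 4 hours. TNFα in medium quantified by TR-FRET two-antibody detection after overnight room-temperature incubation. Percent of control calculated against unstimulated (0%) and LPS-stimulated (100%) cells.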

In the next assay the target is T1, IRAK4 enzyme (Homo sapiens, UniProt Q9NWZ3).
T1 construct: purchased Carna Biosciences, Chuo-ku, Kobe, Japan
T1 sequence (Q9NWZ3 1-460): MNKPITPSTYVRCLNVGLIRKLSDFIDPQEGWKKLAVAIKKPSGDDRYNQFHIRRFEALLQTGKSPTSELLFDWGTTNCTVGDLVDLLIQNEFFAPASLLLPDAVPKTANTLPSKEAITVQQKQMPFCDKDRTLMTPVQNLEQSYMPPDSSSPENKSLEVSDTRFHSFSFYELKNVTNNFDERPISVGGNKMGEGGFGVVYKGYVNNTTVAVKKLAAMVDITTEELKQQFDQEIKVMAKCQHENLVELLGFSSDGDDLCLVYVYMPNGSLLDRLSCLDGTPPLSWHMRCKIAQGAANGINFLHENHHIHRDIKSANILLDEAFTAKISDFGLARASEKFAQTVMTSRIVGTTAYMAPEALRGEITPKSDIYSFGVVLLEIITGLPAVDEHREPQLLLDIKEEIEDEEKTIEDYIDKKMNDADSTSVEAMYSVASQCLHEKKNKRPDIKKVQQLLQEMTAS
The assay can be described thus: IRAK4 Biochemical Assay (TR-FRET, STK1 KinEASE). The following applies: 500 μM ATP, Table 2 second part (compounds 33-343), read-out: IC50 IRAK4-HTBS. In a few lines:
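Human IRAK4 (0.75 nM) preincubated 15 min with compound and 2 μM STK1 peptide, then reacted 120 min at room temperature with 500 μM ATP in HEPES pH 7.0 buffer with MgCl2 and DTT. EDTA stop with Cryptate anti-phosphopeptide antibody and tracer, 60 min; TR-FRET read as 665/615 nm ratio.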

The mark [1] stands for this setting: human monocytes, LPS-stimulated, Table 2 second part (compounds 33-343).

Each structure is given as a SMILES string. Where two headings read alike, the source gives them in different places.

On to `COC(=O)N[C@H]1CC[C@@H](c2nnc(-c3cnc(-c4ccc5cc(C#N)cnn45)cc3NC3COC3)s2)CC1` [Example 205, methyl ((1s,4s)-4-(5-(6-(3-cyanopyrrolo[1,2-b]pyridazin-7-yl)-4-(oxetan-3-ylamino)pyridin-3-yl)-1,3,4-thiadiazol-2-yl)cyclohexyl)carbamate], for which, in the assay on TNFα (setting [1]), the concentration giving a half-maximal response (EC50) amounted to 20.1 nM. Moreover, at IRAK4 enzyme, the 50% inhibitory concentration (IC50) came out at 0.62 nM.

Regarding `CC(=O)N[C@@H]1C[C@H]2COC[C@@H](C1)N2c1nnc(-c2cnc(-c3ccc4cc(C#N)cnn34)cc2NC(C)C)s1` [Example 209, N-((1R,5S,7r)-9-(5-(6-(3-cyanopyrrolo[1,2-b]pyridazin-7-yl)-4-(isopropylamino)pyridin-3-yl)-1,3,4-thiadiazol-2-lyl)-3-oxa-9-azabicyclo[3.3.1]nonan-7-yl)acetamide], the EC50 in the assay on TNFα is 9.6 nM. Also, the IC50 at IRAK4 enzyme was determined as 0.89 nM.

For `CC1(Nc2cc(-c3ccc4cc(C#N)cnn34)ncc2-c2nnc(N3C[C@H]4CC[C@@H](C3)[C@@H]4NC(=O)C(C)(C)O)s2)COC1` [Example 210, N-((1R,5S,8s)-3-(5-(6-(3-cyanopyrrolo[1,2-b]pyridazin-7-yl)-4-((3-methyloxetan-3-yl)amino)pyridin-3-yl)-1,3,4-thiadiazol-2-yl)-3-azabicyclo[3.2.1]octan-8-yl)-2-hydroxy-2-methylpropanamide], the EC50 in the assay on TNFα (setting [1]) worked out at 2.8 nM. Moreover, the IC50 at IRAK4 enzyme worked out at 0.84 nM.

Turning to `CC(C)Nc1cc(-c2ccc3cc(C#N)cnn23)ncc1-c1nnc(C(=O)N[C@H]2C[C@H](O)C2)s1` [Example 213, 5-(6-(3-cyanopyrrolo[1,2-b]pyridazin-7-yl)-4-(isopropylamino)pyridin-3-yl)-N-((1r,3r)-3-hydroxycyclobutyl)-1,3,4-thiadiazole-2-carboxamide], the EC50 in the assay with TNFα (setting [1]) turned out to be 1830 nM. Moreover, the IC50 at IRAK4 enzyme was found to be 0.31 nM.

In the case of `CC(C)Nc1cc(-c2ccc3cc(C#N)cnn23)ncc1-c1nnc(C(=O)N[C@H]2C[C@@H](O)C2)s1` [Example 215, 5-(6-(3-cyanopyrrolo[1,2-b]pyridazin-7-yl)-4-(isopropylamino)pyridin-3-yl)-N-((1s,3s)-3-hydroxycyclobutyl)-1,3,4-thiadiazole-2-carboxamide], in the assay with TNFα (setting [1]), the EC50 was 3100 nM. Further, the IC50 on IRAK4 enzyme worked out at 0.7 nM.

As to `CC(C)Nc1cc(-c2ccc3cc(C#N)cnn23)ncc1-c1nnc(C(=O)N2CCC[C@H]2CO)s1` [Example 217, (S)-7-(5-(5-(2-(hydroxymethyl)pyrrolidine-1-carbonyl)-1,3,4-thiadiazol-2-yl)-4-(isopropylamino)pyridin-2-yl)pyrrolo[1,2-b]pyridazine-3-carbonitrile], the EC50 in the assay on TNFα (setting [1]) was 11.1 nM. The IC50 on IRAK4 enzyme came out at 0.81 nM.

Regarding `CC(C)Nc1cc(-c2ccc3cc(C#N)cnn23)ncc1-c1nnc(C(=O)N[C@H]2C[C@@](C)(O)C2)s1` [Example 218, 5-(6-(3-cyanopyrrolo[1,2-b]pyridazin-7-yl)-4-(isopropylamino)pyridin-3-yl)-N-((1s,3s)-3-hydroxy-3-methylcyclobutyl)-1,3,4-thiadiazole-2-carboxamide], in the assay on TNFα (setting [1]), the EC50 is 858 nM. Also, the IC50 at IRAK4 enzyme came out at 1.12 nM.

As to `CC(C)Nc1cc(-c2ccc3cc(C#N)cnn23)ncc1-c1nnc(C(=O)N[C@H]2C[C@](C)(O)C2)s1` [Example 219, 5-(6-(3-cyanopyrrolo[1,2-b]pyridazin-7-yl)-4-(isopropylamino)pyridin-3-yl)-N-((1r,3r)-3-hydroxy-3-methylcyclobutyl)-1,3,4-thiadiazole-2-carboxamide], the EC50 in the assay on TNFα (setting [1]) came to 2070 nM. On IRAK4 enzyme, the half-maximal inhibitory concentration (IC50) worked out at 0.68 nM.

As for `CC(C)Nc1cc(-c2ccc3cc(C#N)cnn23)ncc1-c1nnc(C(=O)N[C@H]2CC[C@H](O)CC2)s1` [Example 220, 5-(6-(3-cyanopyrrolo[1,2-b]pyridazin-7-yl)-4-(isopropylamino)pyridin-3-yl)-N-((1r,4r)-4-hydroxycyclohexyl)-1,3,4-thiadiazole-2-carboxamide], the EC50 with TNFα (setting [1]) turned out to be 131 nM. Also, on IRAK4 enzyme, the IC50 was found to be 1.39 nM.

As for `CC(C)Nc1cc(-c2ccc3cc(C#N)cnn23)ncc1-c1nnc(C(=O)N[C@H]2CC[C@@H](O)CC2)s1` [Example 224, 5-(6-(3-cyanopyrrolo[1,2-b]pyridazin-7-yl)-4-(isopropylamino)pyridin-3-yl)-N-((1s,4s)-4-hydroxycyclohexyl)-1,3,4-thiadiazole-2-carboxamide], the EC50 with TNFα (setting [1]) was found to be 4770 nM. At IRAK4 enzyme, the half-inhibitory concentration (IC50) worked out at 1.12 nM.

As for `CNc1cc(-c2ccc3cc(C#N)cnn23)ncc1-c1nnc([C@H]2C[C@H](NC(C)=O)C2)s1` [Example 282, N-((1r,3r)-3-(5-(6-(3-cyanopyrrolo[1,2-b]pyridazin-7-yl)-4-(methylamino)pyridin-3-yl)-1,3,4-thiadiazol-2-yl)cyclobutyl)acetamide], the half-maximal effective concentration (EC50) with TNFα (setting [1]) stood at 22.4 nM. Also, the IC50 at IRAK4 enzyme amounted to 0.59 nM.

With `CC(C)Nc1cc(-c2ccc3cc(C#N)cnn23)ncc1-c1nnc([C@H]2CC[C@H](NC(=O)C(C)(C)O)CC2)s1` [Example 315, N-((1r,4r)-4-(5-(6-(3-cyanopyrrolo[1,2-b]pyridazin-7-yl)-4-(isopropylamino)pyridin-3-yl)-1,3,4-thiadiazol-2-yl)cyclohexyl)-2-hydroxy-2-methylpropanamide], the EC50 in the assay on TNFα (setting [1]) came out at 10.9 nM. Besides, the IC50 on IRAK4 enzyme came to 0.77 nM.

Take `CCOC(=O)Cc1nnc(-c2cnc(-c3ccc4cc(C#N)cnn34)cc2NC(C)C)s1` [Example 318, ethyl 2-(5-(6-(3-cyanopyrrolo[1,2-b]pyridazin-7-yl)-4-(isopropylamino)pyridin-3-yl)-1,3,4-thiadiazol-2-yl)acetate]: the EC50 in the assay with TNFα (setting [1]) came to 102 nM. In addition, the IC50 on IRAK4 enzyme was determined as 0.94 nM.
